The IC50 is the concentration at which inhibition is half-maximal. A lower IC50 goes with inhibition by little substance. The term IC90 denotes the concentration needed for an effect of 90%. The low end stands for an effect from little substance, the high end for a need for much substance.

The values that follow come from patent US6569878B1, “Substituted 4-amino-thiazol-2-yl compounds as cyclin-dependent kinase inhibitors” (Agouron Pharmaceuticals Inc., priority 1997, dated 2003).

The structures appear in SMILES notation. A value given as a limit tells only on which side of the number the result lay.

Assay [1] concerns the target T1, human CDK1 (cdc2) and cyclin B (Homo sapiens, UniProt P06493).
T1 construct: purchased New England Biolabs (Beverly Mass.)
The assay is described as follows: Inhibition of CDK1(cdc2)/cyclin B histone H1 kinase activity. The assay is classed as biochemical. As to conditions: read-out: Ki CDK 1/B. A digest of the protocol: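 CDK1/cyclin B (commercial, or CDK1/GST-cyclin B1 from co-infected insect cells) phosphorylated histone H1 with 25 μM [32/33P]ATP at pH 7.4, 30° C for 20 min, 2% DMSO. Product captured on phosphocellulose and read by phosphorimager; apparent Ki from competitive or tight-binding fits, with Km for ATP determined.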

Assay [2] relates to SW-480. The assay is described as follows: Inhibition of cell growth, MTT assay, SW-480. In kind it is cell-based. As to conditions: Homo sapiens, SW480; SW-480, MTT assay. The protocol:
Inhibition of cell growth was measured using the tetrazolium salt assay, which is based on the ability of viable cells to reduce 3-(4,5-dimethylthiazol-2-yl)-2,5-[2H]-diphenyltetrazolium bromide (MTT) to formazan (Mossman, Journal of Immunological Methods, vol. 65 (1983), pp. 55-58). The water-insoluble purple formazan product was then detected spectrophotometrically. Various cell lines (HCT-116, Saos-2, U2-OS, SW480, COLO-205, RXF-393, M14, MDA-MB-468, and MCF7) were grown in 96-well plates. Cells were plated in the appropriate medium at a volume of 135 μl/well in either McCoy's 5A Medium (for Saos-2, U2-OS, SW480, and HCT-116 cells), RPMI (for COLO-205, RXF-393, M14 cells), or Minimum Essential Medium Eagle (for MDA-MB-468 and MCF7 cells). Plates were incubated for four hours before addition of inhibitor compounds. Different concentrations of inhibitor compounds were added in 0.5% (v/v) dimethylsulfoxide (15 μL/well), and cells were incubated at 37° C. (5% CO2) for four to six days (depending on cell type). At the end of the incubation, MTT was added to a final concentration of 0.2 mg/mL, and cells were incubated for 4 hours more at 37° C. After centrifugation of the plates and removal of medium, the absorbance of the formazan (solubilized in dimethylsulfoxide) was measured at 540 nm. […] All results were compared to control cells treated only with 0.5% (v/v) dimethylsulfoxide.
On the technique in general: Tetrazolium assays rely on reduction of a dye to a coloured formazan, in cell work by metabolically active cells.

Assay [3] relates to Saos-2. The assay is described as follows: Inhibition of cell growth, MTT assay, Saos-2. The assay is classed as cell-based. The conditions noted are these: Homo sapiens; Saos-2, MTT assay. In a few lines: (§1)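 Cells rested 4 h after plating, then exposed to graded compound concentrations in 0.5% (v/v) DMSO for four to six days (cell-type dependent) at 37° C, 5% CO2. Viability was read by MTT (0.2 mg/mL final, 4 h at 37° C), with DMSO-solubilized formazan measured at 540 nm.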

For assay [4], the target named is T2, complex of human CDK4 and cyclin D3 (Homo sapiens, UniProt P11802).
T2 construct: made in house; host or cells: insect cells, co-infected with baculovirus
T2 sequence (P11802 whole entry): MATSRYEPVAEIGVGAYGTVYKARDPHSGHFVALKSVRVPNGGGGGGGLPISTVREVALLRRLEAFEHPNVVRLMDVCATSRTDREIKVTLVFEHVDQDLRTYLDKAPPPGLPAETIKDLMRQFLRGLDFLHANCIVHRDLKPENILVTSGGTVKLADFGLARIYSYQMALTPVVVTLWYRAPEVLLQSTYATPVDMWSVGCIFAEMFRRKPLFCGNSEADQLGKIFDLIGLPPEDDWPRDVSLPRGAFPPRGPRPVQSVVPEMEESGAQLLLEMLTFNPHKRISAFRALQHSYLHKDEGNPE
T2 sequence (P30281 whole entry partner): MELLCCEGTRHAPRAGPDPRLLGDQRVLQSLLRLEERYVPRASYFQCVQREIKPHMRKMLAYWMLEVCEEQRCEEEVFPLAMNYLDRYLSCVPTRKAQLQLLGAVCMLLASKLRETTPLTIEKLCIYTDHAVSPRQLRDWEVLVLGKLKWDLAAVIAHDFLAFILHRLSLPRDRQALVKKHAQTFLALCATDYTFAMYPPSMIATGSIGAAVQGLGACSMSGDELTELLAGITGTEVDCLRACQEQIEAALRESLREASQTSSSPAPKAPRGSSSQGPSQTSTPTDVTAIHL
The assay is described as follows: Inhibition of CDK4/cyclin D retinoblastoma kinase activity (D-type cyclin is D3). The assay is classed as biochemical. As to conditions: superscript a: D-type cyclin is D3; apparent Ki; read-out: Ki CDK 4/D. In a few lines:
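Radiometric assay: [32P]- or [33P]ATP phosphate incorporation into Rb substrate at 30°C for 20 min, stopped with EDTA, filter-captured and phosphorimaged.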

Assay [5] deals with U2-OS. The assay is described as follows: Inhibition of cell growth, MTT assay, U2-OS. The assay is classed as cell-based. The conditions noted are these: for IC50 / IC90: Homo sapiens, U2OS. A digest of the protocol:
as §1

Assay [6] concerns MCF-7. The assay is described as follows: Inhibition of cell growth, MTT assay, MCF-7. The assay is classed as cell-based. As to conditions: MCF-7, MTT assay; for IC50 / IC90: Homo sapiens, MCF7. The protocol:
(§2) The water-insoluble purple formazan product was then detected spectrophotometrically. […] Plates were incubated for four hours before addition of inhibitor compounds. Different concentrations of inhibitor compounds were added in 0.5% (v/v) dimethylsulfoxide (15 μL/well), and cells were incubated at 37° C. (5% CO2) for four to six days (depending on cell type). At the end of the incubation, MTT was added to a final concentration of 0.2 mg/mL, and cells were incubated for 4 hours more at 37° C. After centrifugation of the plates and removal of medium, the absorbance of the formazan (solubilized in dimethylsulfoxide) was measured at 540 nm.

The target of assay [7] is T3, CDK2/cyclin A (Homo sapiens, UniProt P24941).
T3 construct: made in house; host or cells: CDK2: insect cells (baculovirus); cyclin A: E. coli, then limited proteolysis
The assay is described as follows: Inhibition of CDK2/cyclin A retinoblastoma kinase activity. The conditions noted are these: read-out: Ki CDK 2/A. In kind it is biochemical. A digest of the protocol: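 Baculovirus-expressed CDK2 with excess proteolyzed cyclin A (or purified complex), 150 nM or 5 nM, phosphorylating an Rb fragment with 25 μM [32/33P]ATP, pH 7.4, 30° C, 20 min. Filter-captured radioactivity by phosphorimager; apparent Ki from fits to competitive or tight-binding competitive inhibition using measured ATP Km.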

The test system of assay [8] is MDA-MB-468. The assay is described as follows: Inhibition of cell growth, MTT assay, MDA-MB-468. The assay is classed as cell-based. The conditions noted are these: Homo sapiens; MDA-MB-468, MTT assay. The protocol:
as §2

Assay [9] has as its system HCT116. The assay is described as follows: Inhibition of cell growth, MTT assay, HCT116. In kind it is cell-based, human. As to conditions: for IC50 / IC90: Homo sapiens, HCT-116. In a few lines:
as §1

Assay [10] has as its target T4, complex of human CDK4 and genetically truncated (1-264) cyclin D3 (Homo sapiens, UniProt P11802).
T4 construct: made in house; host or cells: insect cells, co-infected with baculovirus
The assay is described as follows: Inhibition of CDK4/cyclin D retinoblastoma kinase activity (D-type cyclin is truncated D3). The assay is classed as biochemical. The conditions noted are these: superscript c: D-type cyclin is truncated D3; read-out: Ki CDK 4/D. The protocol:
Cyclin-dependent kinase activity was measured by quantifying the enzyme-catalyzed, time-dependent incorporation of radioactive phosphate from [^32P]ATP or [^33P]ATP into a protein substrate. Unless noted otherwise, assays were performed in 96-well plates in a total volume of 50 μL, in the presence of 10 mM HEPES (N-[2-hydroxyethyl]piperazine-N′-[2-ethanesulfonic acid]) (pH 7.4), 10 mM MgCl2, 25 μM adenosine triphosphate (ATP), 1 mg/mL ovalbumin, 5 μg/mL leupeptin, 1 mM dithiothreitol, 10 mM β-glycerophosphate, 0.1 mM sodium vanadate, 1 mM sodium fluoride, 2.5 mM ethylene glycol-bis(β-aminoethyl ether)-N,N,N′N′-tetraacetic acid (EGTA), 2% (v/v) dimethylsulfoxide, and 0.03-0.4 μCi [^32/33P]ATP per reaction. Reactions were initiated with enzyme, incubated at 30° C., and terminated after 20 minutes by the addition of ethylenediaminetetraacetic acid (EDTA) to 250 mM. The phosphorylated substrate was then captured on a nitrocellulose or phosphocellulose membrane using a 96-well filtration manifold, and unincorporated radioactivity was removed by repeated washing with 0.85% phosphoric acid. Radioactivity was quantified by exposing the dried membranes to a phosphorimager.
Apparent Ki values were measured by assaying enzyme activity in the presence of different inhibitor compound concentrations and subtracting the background radioactivity measured in the absence of enzyme. The kinetic parameters (kcat, Km for ATP) were measured for each enzyme under the usual assay conditions by determining the dependence of initial rates on ATP concentration. Inhibition data were fit to an equation for competitive inhibition using Kaleidagraph (Synergy Software), or were fit to an equation for competitive tight-binding inhibition using the software KineTic (BioKin, Ltd.).
A complex of human CDK4 and cyclin D3, or a complex of cyclin D1 and a fusion protein of human CDK4 and gluathione-S-transferase (GST-CDK4), or a complex of human CDK4 and genetically truncated (1-264) cyclin D3, was purified using traditional biochemical chromatographic techniques from insect cells that had been co-infected with the corresponding baculovirus expression vectors (see e.g., Meijer and Kim, “Chemical Inhibitors of Cyclin-Dependent Kinases,” Methods in Enzymol,. vol. 283 (1997), pp. 113-128.). The enzyme complex (5 or 50 nM) was assayed with 0.3-0.5 μg of purified recombinant retinoblastoma protein fragment (Rb) as a substrate. The engineered Rb fragment (residues 386-928 of the native retinoblastoma protein; 62.3 kDa) contains the majority of the phosphorylation sites found in the native 106-kDa protein, as well as a tag of six histidine residues for ease of purification. Phosphorylated Rb substrate was captured by microfiltration on a nitrocellulose membrane and quantified using a phosphorimager as described above. For measurement of tight-binding inhibitors, the enzyme complex concentration was lowered to 5 nM, and the assay duration was extended to 60 minutes, during which the time-dependence of product formation was linear.

T4 sequence (P11802 whole entry, the tested form may be a part): as the sequence (P11802 whole entry) above
T4 sequence (P30281 1-264 partner limits assumed): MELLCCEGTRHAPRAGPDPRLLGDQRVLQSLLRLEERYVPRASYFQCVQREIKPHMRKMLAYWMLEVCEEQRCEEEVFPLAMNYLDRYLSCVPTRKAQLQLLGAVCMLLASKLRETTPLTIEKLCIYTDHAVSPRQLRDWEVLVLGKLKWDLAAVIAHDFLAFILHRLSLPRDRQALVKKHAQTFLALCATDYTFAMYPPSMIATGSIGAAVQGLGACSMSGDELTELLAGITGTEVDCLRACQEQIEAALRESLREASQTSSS
T1 sequence (P06493 whole entry): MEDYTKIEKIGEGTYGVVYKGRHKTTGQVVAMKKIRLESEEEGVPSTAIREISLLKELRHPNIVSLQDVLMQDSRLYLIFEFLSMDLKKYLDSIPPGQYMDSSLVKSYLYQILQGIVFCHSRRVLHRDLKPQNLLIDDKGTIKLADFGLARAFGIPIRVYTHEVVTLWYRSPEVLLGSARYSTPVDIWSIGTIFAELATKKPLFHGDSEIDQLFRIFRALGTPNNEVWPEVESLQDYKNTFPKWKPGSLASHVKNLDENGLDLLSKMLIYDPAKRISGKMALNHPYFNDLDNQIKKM
T1 sequence (P14635 whole entry partner): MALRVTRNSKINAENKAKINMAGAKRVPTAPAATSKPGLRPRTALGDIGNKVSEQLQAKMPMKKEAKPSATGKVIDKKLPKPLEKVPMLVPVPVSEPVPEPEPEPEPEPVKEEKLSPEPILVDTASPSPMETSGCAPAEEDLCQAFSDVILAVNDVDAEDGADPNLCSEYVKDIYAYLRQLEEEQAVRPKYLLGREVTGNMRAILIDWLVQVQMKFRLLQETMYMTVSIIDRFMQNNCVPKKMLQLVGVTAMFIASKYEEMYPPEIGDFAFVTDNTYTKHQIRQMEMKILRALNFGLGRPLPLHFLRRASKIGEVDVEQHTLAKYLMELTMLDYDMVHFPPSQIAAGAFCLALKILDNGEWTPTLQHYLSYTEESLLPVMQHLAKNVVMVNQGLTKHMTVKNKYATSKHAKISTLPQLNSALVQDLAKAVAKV

Consider `COc1ccc(Nc2nc(N)c(C(=O)c3ccccc3[N+](=O)[O-])s2)cc1` [A(10), [4-Amino-2-(4-methoxy-phenylamino)-thiazol-5-yl]-(2-nitro-phenyl)-methanone], for which the Ki turned out to be 0.057 µM in assay [1], 0.036 µM in [4] and 0.318 µM in [7]. Besides, the half-maximal inhibitory concentration (IC50) was determined as 0.7 µM in assay [2]; 1.3 µM in assay [3]; 0.9 µM in assay [5]; 0.65 µM in [6]; 0.72 µM in [8]; 0.95 µM in assay [9]. Moreover, the IC90 in [2] is 7.5 µM; in assay [3] it was 4.6 µM; in assay [5], 1.6 µM; in assay [6], 5.5 µM; in assay [8] it was 1.7 µM; in assay [9], 1.8 µM.

Take `Cc1c(C(=O)c2sc(Nc3ccc4nc[nH]c4c3)nc2N)sc2ccccc12` [C(8), [4-Amino-2-(1H-benzoimidazol-6-ylamino)-thiazol-5-yl]-(3-methyl-benzo[b]thiophen-2-yl)-methanone]: the Ki in assay [1] came to 0.097 µM; in assay [4], 0.027 µM; in assay [7], 0.389 µM. Besides, the concentration for half-maximal inhibition (IC50) came out at 8.3 µM in assay [2]; 6.2 µM in assay [3]; 10 µM in assay [5]; 15 µM in assay [6]; 6.8 µM in assay [8]; 18 µM in assay [9]. Besides, the IC90 is 20 µM in assay [2]; 18 µM in assay [3]; over 25 µM in [5]; over 25 µM in assay [6]; 15 µM in [8]; over 25 µM in assay [9]. The “% inhibition of growth in parentheses after >25” value was 84% in [5] (concentration not given), “(82%)” in [6] (concentration not given) and 88% in [9] (concentration not given).

`CN(C)CCN(C)c1ccc(Nc2nc(N)c(C(=O)c3c(F)cccc3F)s2)cc1` [C(110), (4-Amino-2-{4-[(2-dimethylamino-ethyl)-methyl-amino]-phenylamino}-thiazol-5-yl)-(2,6-difluoro-phenyl)-methanone]: the Ki turned out to be 0.104 µM in assay [1], 0.014 µM in assay [4] and 0.26 µM in assay [7]. Also, the IC50 came to 0.89 µM in assay [3]; 0.7 µM in assay [5]; 0.4 µM in [6]; 0.44 µM in assay [8]; 0.64 µM in [9]. Moreover, the IC90 stood at 1.8 µM in assay [3]; 1.6 µM in assay [5]; 1.7 µM in assay [6]; 0.75 µM in [8]; 1.7 µM in assay [9].

For the compound `Nc1nc(Nc2ccc(N3CCN(CC4CC4)CC3)cc2)sc1C(=O)c1c(F)cccc1F` [C(121), {4-Amino-2-[4-(4-cyclopropylmethyl-piperazin-1-yl)-phenylamino]-thiazol-5-yl}-(2,6-difluoro-phenyl)-methanone], the IC50 in assay [3] is 5.1 µM; in [5], 6 µM; in assay [9], 2.5 µM. The figures for the IC90 in [3], in assay [5] and in assay [9] were 12 µM, 11 µM and 5.3 µM, respectively. For the same compound, the Ki was 0.0106 µM in assay [10] and 0.953 µM in [7].

For the compound `CN(C)CCCN(C)c1ccc(Nc2nc(N)c(C(=O)c3c(F)cccc3F)s2)cc1` [C(126), (4-Amino-2-{4-[(3-dimethylamino-propyl)-methyl-amino]-phenylamino}-thiazol-5-yl)-(2,6-difluoro-phenyl)-methanone], the Ki in assay [10] came out at 0.024 µM. Further, the Ki in [7] was determined as 0.39 µM. Further, in [9], 0.6 µM corresponded to half-maximal inhibition (IC50) and the 90% effect level (IC90) was put at 1.4 µM.

Regarding `Nc1nc(Nc2ccc(N3CCN(c4ccncc4)CC3)cc2)sc1C(=O)c1c(F)cccc1F` [C(127)], the values for the Ki in assay [10] and in assay [7] were 0.026 µM and 0.215 µM, respectively.

As to `CN1CCCN(c2ccc(Nc3nc(N)c(C(=O)c4c(F)cccc4F)s3)cc2)CC1` [C(128), {4-Amino-2-[4-(1-methyl-[1,4]-diazepan-4-yl)-phenylamino]-thiazol-5-yl}-(2,6-difluoro-phenyl)-methanone], the Ki is 0.03 µM in [10] and 0.44 µM in [7].

Take `CN(CCC#N)c1ccc(Nc2nc(N)c(C(=O)c3c(F)cccc3F)s2)cc1` [C(129), 3-({4-[4-Amino-5-(2,6-difluorobenzoyl)-thiazol-2-yl-amino]-phenyl}-methylamino)-propionitrile]: the results for the Ki in assay [10] and in assay [7] were 0.064 µM and 0.27 µM, respectively.

On to `Nc1nc(Nc2ccc(N3CCC(C(=O)O)CC3)cc2)sc1C(=O)c1c(F)cccc1F` [M, 1-{4-[4-Amino-5-(2,6-difluoro-benzoyl)-thiazol-2-ylamino]-phenyl}-piperidine-4-carboxylic Acid], for which the results for the Ki in [10] and in assay [7] were 0.046 µM and 0.29 µM, respectively. In assay [9], this compound displayed an IC50 of over 25 µM.
